Key:
Assay in all cases: Antimicrobial screening by agar dilution
Assay type in all cases: cell-based
Details in all cases: after 10, 20, 40 and 60 minutes at all dilutions 1:100, 1:200, 1:400, 1:800
Escherichia coli = system: Escherichia coli
Description: (§1) The antibacterial properties of the synthesized compound 9-(2-hydroxypyridin-3-yl)-10-(2-hydroxyethyl)-3,3,6,6-tetramethyl-3,4,6,7,9,10-hexahydroacridine1,8(2H,5H)-dione were studied by the method of agar dilution. Test solutions of each compound was prepared in concentration of 1% using dimethylformamide as a solvent then they are diluted in physiological solution to obtain the final experimental dilutions 1:100, 1:200, 1:400, 1:800. The effect of these substances are compared with furacillin in a controllable study. The testing microbes used were gram positive bacteria Staphylococcus aureus, gram negative bacteria Pseudomonas aeruginosa and Escherichia coli and Candida albicans fungus. The experiments used for this survey were meat-pentonlu agar (EPA) for cultivation of bacteria and Saburo environment for the fungus. Each experiment used 1 mL of test solution on each plate […]. Two drops of emulsified with microbes feel were added. All experimental samples were taken from the agar after 10, 20, 40, 60 minutes in the environment on the basis of Patrk planted. The bacteria were cultivated at a temperature of 37° C. for 1 day and the mushroom was kept in a thermostat for […] at a temperature of 28° C. Then results were checked.

Staphylococcus aureus = system: Staphylococcus aureus
Description: as §1

Candida albicans = system: Candida albicans
Description: as §1

Pseudomonas aeruginosa = system: Pseudomonas aeruginosa
Description: as §1

Measured: inhibition activity

CC1(C)CC(=O)C2=C(C1)N(CCO)C1=C(C(=O)CC(C)(C)C1)C2c1cccnc1O [9-(2-hydroxypyridin-3-yl)-10-(2-hydroxyethyl)-3,3,6,6-tetramethyl-3,4,6,7,9,10-hexahydroacridine1,8(2H,5H)-dione]
highest inhibition activity: Escherichia coli | Staphylococcus aureus | Candida albicans | Pseudomonas aeruginosa

From patent publication US12129241B1, “9-(2-hydroxypyridin-3-yl)-10-(2-hydroxyethyl)-3,3,6,6-tetramethyl-3,4,6,7,9,10-hexahydroacridine1,8(2H,5H)-dione as an antimicrobial compound” (KING FAISAL UNIVERSITY, priority 2023, dated 2024)
